The results in this text go back to ChEMBL document CHEMBL1135920, “Synthesis and in vitro antitumor activity of new deaza analogues of the nonpolyglutamatable antifolate N(alpha)-(4-amino-4-deoxypteroyl)-N(delta)-hemiphthaloyl-L-ornithine (PT523)” (J Med Chem, 2002).

The structures appear in SMILES notation.

A word on the IC50: it is the concentration needed to halve the response being measured. A low value points to inhibition by little substance. What is called Ki is the equilibrium dissociation constant of an inhibitor or competing ligand from its target.

One assay deals with CCRF-CEM. Nature of the assay: Inhibition the growth of CCRF-CEM human leukemic lymphoblasts in culture during 72 hr of continuous drug exposure. In kind it is functional, cell-based.
In another assay the target is T1, Dihydrofolate reductase (Homo sapiens, UniProt P00374).
T1 sequence (P00374 whole entry): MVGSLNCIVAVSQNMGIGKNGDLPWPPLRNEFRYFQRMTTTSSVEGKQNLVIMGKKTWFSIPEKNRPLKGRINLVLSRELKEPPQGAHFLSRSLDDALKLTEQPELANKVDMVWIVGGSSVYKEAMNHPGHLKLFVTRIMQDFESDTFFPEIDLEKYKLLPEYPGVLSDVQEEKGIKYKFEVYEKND
Nature of the assay: Inhibitory activity against human recombinant Dihydrofolate reductase.

As to `CCC(Cc1cnc2nc(N)nc(N)c2n1)c1ccc(C(=O)NC(CCCNC(=O)c2ccccc2C(=O)O)C(=O)O)cc1` (centres undefined), in the assay on CCRF-CEM, the IC50 was found to be 1200 pM. Further, on Dihydrofolate reductase, the Ki is 0.62 pM. With `Nc1cc(N)c2cc(CCc3ccc(C(=O)NC(CCCNC(=O)c4ccccc4C(=O)O)C(=O)O)cc3)ccc2c1` (centres undefined), it took 690 pM to reach half-maximal inhibition with CCRF-CEM (IC50). The Ki at Dihydrofolate reductase was found to be 0.21 pM. Molecule `C#CCC(Cc1cnc2nc(N)nc(N)c2n1)c1ccc(C(=O)NC(CCCNC(=O)c2ccccc2C(=O)O)C(=O)O)cc1` (centres undefined) returned a concentration for half-maximal inhibition (IC50) with CCRF-CEM of 1300 pM. In addition, on Dihydrofolate reductase, the Ki was 0.6 pM.

As for `Nc1nc(N)c2cc(CNc3ccc(C(=O)NC(CCCNC(=O)c4ccccc4C(=O)O)C(=O)O)cc3)ccc2n1` (centres undefined), in the assay on CCRF-CEM, half-maximal inhibition (IC50) required 640 pM.

For `Nc1cc(N)c2nc(CCc3ccc(C(=O)NC(CCCNC(=O)c4ccccc4C(=O)O)C(=O)O)cc3)cnc2c1` (centres undefined), the IC50 in the assay with CCRF-CEM was determined as 530 pM. Besides, the Ki on Dihydrofolate reductase was found to be 0.35 pM.
